In patent US20080051387A1, “TETRAHYDROPYRIDO[3,4-D]PYRIMIDINES AND RELATED ANALOGUES” (priority 2006, published 2008):

molecular target: T1, chimeric human H3 receptor (Homo sapiens, UniProt Q9Y5N1); test: Chimeric human H3 receptor screening GTP binding assay (inhibition of histamine-stimulated GTP-gamma35S binding, Example 8); assay type: biochemical; details: 1 h; assay described in Example 8; symbol "!" in column headed Ki; read-out: Ki ("!": percent inhibition of agonist-induced GTP-gammaS binding to H3)
T1 construct: rat Galpha-i2 (Gnai2, rat); made in house; host or cells: Sf9 insect cells (baculovirus); P2 membranes
T1 sequence (Q9Y5N1 with tags, fused parts or gaps): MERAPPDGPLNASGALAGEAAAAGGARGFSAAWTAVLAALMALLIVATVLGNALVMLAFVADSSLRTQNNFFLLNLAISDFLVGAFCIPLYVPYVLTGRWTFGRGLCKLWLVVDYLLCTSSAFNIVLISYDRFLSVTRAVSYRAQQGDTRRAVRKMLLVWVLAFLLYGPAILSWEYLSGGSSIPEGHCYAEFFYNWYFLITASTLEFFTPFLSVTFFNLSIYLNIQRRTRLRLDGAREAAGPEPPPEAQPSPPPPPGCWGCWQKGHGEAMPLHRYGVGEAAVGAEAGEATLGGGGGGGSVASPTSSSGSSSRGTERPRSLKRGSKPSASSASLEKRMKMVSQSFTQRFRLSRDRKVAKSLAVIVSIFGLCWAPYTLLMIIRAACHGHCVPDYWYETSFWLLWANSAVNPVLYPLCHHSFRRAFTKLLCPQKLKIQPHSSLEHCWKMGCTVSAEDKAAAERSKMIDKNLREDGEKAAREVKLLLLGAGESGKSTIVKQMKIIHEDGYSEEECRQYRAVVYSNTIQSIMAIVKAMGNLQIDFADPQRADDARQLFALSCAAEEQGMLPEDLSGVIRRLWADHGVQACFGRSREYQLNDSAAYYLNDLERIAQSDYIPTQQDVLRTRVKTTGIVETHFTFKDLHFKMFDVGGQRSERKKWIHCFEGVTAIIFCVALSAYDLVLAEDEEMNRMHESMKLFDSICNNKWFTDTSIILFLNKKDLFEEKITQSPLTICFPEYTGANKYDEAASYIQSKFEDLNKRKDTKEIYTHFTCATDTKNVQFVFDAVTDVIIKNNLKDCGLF
How it was run: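 Sf9 membranes co-expressing chimeric human H3 receptor and heterotrimeric G-protein (35 μg protein) incubated 60 min at room temperature with 4 μM compound, 1 μM histamine and 125 pM GTP-gamma35S in pH 7.4 buffer with 10 μM GDP. Filter-bound radioactivity, nonspecific (10 μM GTP-gammaS) subtracted, reported as % inhibition of histamine signal.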

| inhibition at 4 µM | Compound |
| --- | --- |
| ≥ 90% | O=C(Cc1cccc(F)c1)N1CCc2cnc(N3CCN(C4CCC4)CC3)nc2CC1 [Compound 513, 2-(4-cyclobutylpiperazin-1-yl)-7-[(3-fluorophenyl)acetyl]-6,7,8,9-tetrahydro-5H-pyrimido[4,5-d]azepine] |
| ≥ 90% | Cc1cccc(CC(=O)N2CCc3cnc(N4CCN(C5CCC5)CC4)nc3CC2)c1 [Compound 514, 2-(4-cyclobutylpiperazin-1-yl)-7-[(3-methylphenyl)acetyl]-6,7,8,9-tetrahydro-5H-pyrimido[4,5-d]azepine] |
| ≥ 90% | Cc1ccc(CC(=O)N2CCc3cnc(N4CCN(C5CCC5)CC4)nc3CC2)cc1 [Compound 515, 2-(4-cyclobutylpiperazin-1-yl)-7-[(4-methylphenyl)acetyl]-6,7,8,9-tetrahydro-5H-pyrimido[4,5-d]azepine] |
| ≥ 90% | O=C(Cc1ccc(F)cc1)N1CCc2cnc(N3CCN(C4CCC4)CC3)nc2CC1 [Compound 516, 2-(4-cyclobutylpiperazin-1-yl)-7-[(4-fluorophenyl)acetyl]-6,7,8,9-tetrahydro-5H-pyrimido[4,5-d]azepine] |
| ≥ 90% | O=C(Cc1ccccc1F)N1CCc2cnc(N3CCN(C4CCC4)CC3)nc2CC1 [Compound 517, 2-(4-cyclobutylpiperazin-1-yl)-7-[(2-fluorophenyl)acetyl]-6,7,8,9-tetrahydro-5H-pyrimido[4,5-d]azepine] |
| ≥ 90% | O=C(Cc1ccc(-c2ccccc2)cc1)N1CCc2cnc(N3CCN(C4CCC4)CC3)nc2CC1 [Compound 518, 7-(biphenyl-4-ylacetyl)-2-(4-cyclobutylpiperazin-1-yl)-6,7,8,9-tetrahydro-5H-pyrimido[4,5-d]azepine] |
| ≥ 90% | CSc1ccc(CC(=O)N2CCc3cnc(N4CCN(C5CCC5)CC4)nc3CC2)cc1 [Compound 519, 2-(4-cyclobutylpiperazin-1-yl)-7-{[4-(methylthio)phenyl]acetyl}-6,7,8,9-tetrahydro-5H-pyrimido[4,5-d]azepine] |
| ≥ 90% | O=C(Cc1ccc(OCc2ccccc2)cc1)N1CCc2cnc(N3CCN(C4CCC4)CC3)nc2CC1 [Compound 520, 7-{[4-(benzyloxy)phenyl]acetyl}-2-(4-cyclobutylpiperazin-1-yl)-6,7,8,9-tetrahydro-5H-pyrimido[4,5-d]azepine] |
| ≥ 90% | CC(C)c1ccc(CC(=O)N2CCc3cnc(N4CCN(C5CCC5)CC4)nc3CC2)cc1 [Compound 521, 2-(4-cyclobutylpiperazin-1-yl)-7-[(4-isopropylphenyl)acetyl]-6,7,8,9-tetrahydro-5H-pyrimido[4,5-d]azepine] |
| ≥ 90% | O=C(Cc1ccc2ccccc2c1)N1CCc2cnc(N3CCN(C4CCC4)CC3)nc2CC1 [Compound 522, 2-(4-cyclobutylpiperazin-1-yl)-7-(2-naphthylacetyl)-6,7,8,9-tetrahydro-5H-pyrimido[4,5-d]azepine] |
| ≥ 90% | Nc1ccccc1C(=O)N1CCc2cnc(N3CCN(C4CCC4)CC3)nc2CC1 [Compound 531, 2-{[2-(4-cyclobutylpiperazin-1-yl)-5,6,8,9-tetrahydro-7H-pyrimido[4,5-d]azepin-7-yl]carbonyl}aniline] |

Continued, compound first:

| Compound | inhibition at 4 µM |
| --- | --- |
| CCSc1ncccc1C(=O)N1CCc2cnc(N3CCN(C4CCC4)CC3)nc2CC1 [Compound 502, 2-(4-cyclobutylpiperazin-1-yl)-7-{[2-(ethylthio)pyridin-3-yl]carbonyl}-6,7,8,9-tetrahydro-5H-pyrimido[4,5-d]azepine] | ≥ 90% |
| Cc1ccc(Oc2ncccc2C(=O)N2CCc3cnc(N4CCN(C5CCC5)CC4)nc3CC2)c(C)c1 [Compound 503, 2-(4-cyclobutylpiperazin-1-yl)-7-{[2-(2,4-dimethylphenoxy)pyridin-3-yl]carbonyl}-6,7,8,9-tetrahydro-5H-pyrimido[4,5-d]azepine] | ≥ 90% |
| Cc1c(C(=O)N2CCc3cnc(N4CCN(C5CCC5)CC4)nc3CC2)cnn1-c1ccccc1 [Compound 504, 2-(4-cyclobutylpiperazin-1-yl)-7-[(5-methyl-1-phenyl-1H-pyrazol-4-yl)carbonyl]-6,7,8,9-tetrahydro-5H-pyrimido[4,5-d]azepine] | ≥ 90% |
| Cc1cc(C(=O)N2CCc3cnc(N4CCN(C5CCC5)CC4)nc3CC2)n(C(C)(C)C)n1 [Compound 505, 7-[(1-tert-butyl-3-methyl-1H-pyrazol-5-yl)carbonyl]-2-(4-cyclobutylpiperazin-1-yl)-6,7,8,9-tetrahydro-5H-pyrimido[4,5-d]azepine] | ≥ 90% |
| Cn1nc(C(C)(C)C)cc1C(=O)N1CCc2cnc(N3CCN(C4CCC4)CC3)nc2CC1 [Compound 506, 7-[(3-tert-butyl-1-methyl-1H-pyrazol-5-yl)carbonyl]-2-(4-cyclobutylpiperazin-1-yl)-6,7,8,9-tetrahydro-5H-pyrimido[4,5-d]azepine] | ≥ 90% |
| O=C(c1cnn(-c2ccc(Cl)cc2)c1C(F)(F)F)N1CCc2cnc(N3CCN(C4CCC4)CC3)nc2CC1 [Compound 507, 7-{[1-(4-chlorophenyl)-5-(trifluoromethyl)-1H-pyrazol-4-yl]carbonyl}-2-(4-cyclobutylpiperazin-1-yl)-6,7,8,9-tetrahydro-5H-pyrimido[4,5-d]azepine] | ≥ 90% |
| CCCc1c(C(=O)N2CCc3cnc(N4CCN(C5CCC5)CC4)nc3CC2)cnn1-c1ccccc1 [Compound 508, 2-(4-cyclobutylpiperazin-1-yl)-7-[(1-phenyl-5-propyl-1H-pyrazol-4-yl)carbonyl]-6,7,8,9-tetrahydro-5H-pyrimido[4,5-d]azepine] | ≥ 90% |
| CCn1nc(C)c(Br)c1C(=O)N1CCc2cnc(N3CCN(C4CCC4)CC3)nc2CC1 [Compound 509, 7-[(4-bromo-1-ethyl-3-methyl-1H-pyrazol-5-yl)carbonyl]-2-(4-cyclobutylpiperazin-1-yl)-6,7,8,9-tetrahydro-5H-pyrimido[4,5-d]azepine] | ≥ 90% |
| O=C(c1c(-c2ccccc2)nnc2ccccc12)N1CCc2cnc(N3CCN(C4CCC4)CC3)nc2CC1 [Compound 510, 2-(4-cyclobutylpiperazin-1-yl)-7-[(3-phenylcinnolin-4-yl)carbonyl]-6,7,8,9-tetrahydro-5H-pyrimido[4,5-d]azepine] | ≥ 90% |
| O=C(c1cnn(-c2ccccc2)c1C(F)(F)F)N1CCc2cnc(N3CCN(C4CCC4)CC3)nc2CC1 [Compound 511, 2-(4-cyclobutylpiperazin-1-yl)-7-{[1-phenyl-5-(trifluormethyl)-1H-pyrazol-4-yl]carbonyl}-6,7,8,9-tetrahydro-5H-pyrimido[4,5-d]azepine] | ≥ 90% |
| CCCc1c(C(=O)N2CCc3cnc(N4CCN(C5CCC5)CC4)nc3CC2)cnn1-c1ccc(Cl)cc1 [Compound 512, 7-{[1-(4-chlorophenyl)-5-propyl-1H-pyrazol-4-yl]carbonyl}-2-(4-cyclobutylpiperazin-1-yl)-6,7,8,9-tetrahydro-5H-pyrimido[4,5-d]azepine] | ≥ 90% |
| Cc1onc(-c2c(Cl)cccc2Cl)c1C(=O)N1CCc2cnc(N3CCN(C4CCC4)CC3)nc2CC1 [Compound 523, 2-(4-cyclobutylpiperazin-1-yl)-7-{[3-(2,6-dichlorophenyl)-5-methylisoxazol-4-yl]carbonyl}-6,7,8,9-tetrahydro-5H-pyrimido[4,5-d]azepine] | ≥ 90% |
| Cc1nc(-c2ccc(C(F)(F)F)cc2)sc1C(=O)N1CCc2cnc(N3CCN(C4CCC4)CC3)nc2CC1 [Compound 524, 2-(4-cyclobutylpiperazin-1-yl)-7-({4-methyl-2-[4-(trifluoromethyl)phenyl]-1,3-thiazol-5-yl}carbonyl)-6,7,8,9-tetrahydro-5H-pyrimido[4,5-d]azepine] | ≥ 90% |
| Cc1nc(C)c(C(=O)N2CCc3cnc(N4CCN(C5CCC5)CC4)nc3CC2)s1 [Compound 525, 2-(4-cyclobutylpiperazin-1-yl)-7-[(2,4-dimethyl-1,3-thiazol-5-yl)carbonyl]-6,7,8,9-tetrahydro-5H-pyrimido[4,5-d]azepine] | ≥ 90% |
| O=C(c1nsc(Cl)c1Cl)N1CCc2cnc(N3CCN(C4CCC4)CC3)nc2CC1 [Compound 526, 2-(4-cyclobutylpiperazin-1-yl)-7-[(4,5-dichloroisothiazol-3-yl)carbonyl]-6,7,8,9-tetrahydro-5H-pyrimido[4,5-d]azepine] | ≥ 90% |
| O=C(c1csnn1)N1CCc2cnc(N3CCN(C4CCC4)CC3)nc2CC1 [Compound 527, 2-(4-cyclobutylpiperazin-1-yl)-7-(1,2,3-thiadiazol-4-ylcarbonyl)-6,7,8,9-tetrahydro-5H-pyrimido[4,5-d]azepine] | ≥ 90% |
| Cc1nnsc1C(=O)N1CCc2cnc(N3CCN(C4CCC4)CC3)nc2CC1 [Compound 528, 2-(4-cyclobutylpiperazin-1-yl)-7-[(4-methyl-1,2,3-thiadiazol-5-yl)carbonyl]-6,7,8,9-tetrahydro-5H-pyrimido[4,5-d]azepine] | ≥ 90% |
| O=C(c1csc(-c2cccnc2)n1)N1CCc2cnc(N3CCN(C4CCC4)CC3)nc2CC1 [Compound 529, 2-(4-cyclobutylpiperazin-1-yl)-7-[(2-pyridin-3-yl-1,3-thiazol-4-yl)carbonyl]-6,7,8,9-tetrahydro-5H-pyrimido[4,5-d]azepine] | ≥ 90% |
| O=C(c1csc(-c2ccncc2)n1)N1CCc2cnc(N3CCN(C4CCC4)CC3)nc2CC1 [Compound 530, 2-(4-cyclobutylpiperazin-1-yl)-7-[(2-pyridin-4-yl-1,3-thiazol-4-yl)carbonyl]-6,7,8,9-tetrahydro-5H-pyrimido[4,5-d]azepine] | ≥ 90% |
| Cc1ccc(C(=O)N2CCc3cnc(N4CCN(C5CCC5)CC4)nc3CC2)cc1N [Compound 532, 5-{[2-(4-cyclobutylpiperazin-1-yl)-5,6,8,9-tetrahydro-7H-pyrimido[4,5-d]azepin-7-yl]carbonyl}-2-methylaniline] | ≥ 90% |
